Assay results taken from patent US8759334B2, “Compounds useful for the treatment of metabolic and inflammatory diseases” (Galapagos NV, priority 2011, dated 2014).

Target: T1, GPR43 (Homo sapiens, UniProt O15552)
T1 construct: expressed in transfected cells
T1 sequence (O15552 1-330): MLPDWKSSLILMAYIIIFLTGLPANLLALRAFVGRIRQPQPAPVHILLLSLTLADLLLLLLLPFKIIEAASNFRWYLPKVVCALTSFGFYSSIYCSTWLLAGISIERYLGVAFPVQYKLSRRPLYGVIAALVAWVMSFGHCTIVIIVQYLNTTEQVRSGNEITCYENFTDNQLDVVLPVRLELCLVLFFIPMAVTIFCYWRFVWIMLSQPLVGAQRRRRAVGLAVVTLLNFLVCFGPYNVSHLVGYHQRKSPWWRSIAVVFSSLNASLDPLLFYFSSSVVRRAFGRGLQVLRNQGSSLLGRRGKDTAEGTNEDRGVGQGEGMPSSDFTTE
Assay: Calcium mobilization assay with probenecid
Type: cell-based
Settings: GPR43 stably expressing cells; triggered with sodium acetate at EC80; 2.5 mM probenecid; read-out: GPR43 assay with probenicid IC50
Experimental: The following assay can be used for determination of GPR43 activation. The assay measures intracellular calcium release induced by activation of GPR43. On day 1, GPR43 stably expressing cells were detached with mild trypsinization (Trypsin, 0.25% with EDTA 4Na, 5× diluted in PBS) centrifuged at 1000 rpm for 5 min and resuspended at 6.000 cells/25 […] medium (DMEM supplemented with 10% FBS, 10 μg/mL puromycin and 1% Pen/Strep). The cells were distributed in poly-D-lysine coated 384 well plates (black with clear bottom, 25 μL/well) and incubated overnight at 37° C. 10% CO2.
On day 2, 25 μL of a fluorescent Ca^2+ indicator (Calcium 4 assay; Molecular Devices) supplemented with 2.5 mM probenecid was added on top of the cells and incubated for 2 h at 37° C. Subsequently, compounds at increasing concentration (10 μL/well) were added to the plate and incubated for 15 min at 37° C.
To measure agonist activity of the compounds, compound was added to the well and the Ca^2+-flux was measured simultaneously to the […] of compound.

SMILES	IC50
CN(Cc1ccc(Cl)cc1)C(=O)C1(C)CCN1C(=O)Cc1cc(F)cc(F)c1 (stereo not shown) [Compound 19, 1-[2-(3,5-Difluoro-phenyl)-acetyl]-2-methyl-azetidine-2-carboxylic acid (4-chloro-benzyl)-methyl-amide]	> 1 µM
Cc1cc(C)cc(CC(=O)N2CCC2(C)C(=O)N(C)Cc2cccc(Br)c2)c1 (stereo not shown) [Compound 39, 1-[2-(3,5-Dimethyl-phenyl)-acetyl]-2-methyl-azetidine-2-carboxylic acid (3-bromo-benzyl)-methyl-amide]	> 1 µM
Cc1ccc(C)c(CC(=O)N2CCC2(C)C(=O)N(C)Cc2ccc(Cl)cc2)c1 (stereo not shown) [Compound 41, 1-[2-(2,5-Dimethyl-phenyl)-acetyl]-2-methyl-azetidine-2-carboxylic acid (4-chloro-benzyl)-methyl-amide]	> 1 µM
COC(=O)[C@@H](C)N(Cc1ccc(Cl)cc1)C(=O)C1(C)CCN1C(=O)Cc1cc(C)cc(C)c1 (stereo partly drawn) [Compound 73, (R)-2-((4-Chloro-benzyl)-{1-[2-(3,5-dimethyl-phenyl)-acetyl]-2-methyl-azetidine-2-carbonyl}-amino)-propionic acid methyl ester]	0.501 to 1 µM
Cc1cc(C)cc(CC(=O)N2CCC2(C)C(=O)N(Cc2ccc(Cl)cc2)Cc2nnn[nH]2)c1 (stereo not shown) [Compound 76, 1-[2-(3,5-Dimethyl-phenyl)-acetyl]-2-methyl-azetidine-2-carboxylic acid (4-chloro-benzyl)-(1H-tetrazol-5-ylmethyl)-amide]	> 1 µM
Cc1cc(C)cc(CC(=O)N2CCC2(C)C(=O)N(CC(=O)NC2CC2)Cc2ccc(Cl)cc2)c1 (stereo not shown) [Compound 81, 1-[2-(3,5-Dimethyl-phenyl)-acetyl]-2-methyl-azetidine-2-carboxylic acid (4-chloro-benzyl)-cyclopropylcarbamoylmethyl-amide]	0.101 to 0.5 µM
CC1(C(=O)N(CCCC#N)Cc2ccc(Cl)cc2)CCN1C(=O)Cc1csc2ccccc12 (stereo not shown) [Compound 99, 1-(2-Benzo[b]thiophen-3-yl-acetyl)-2-methyl-azetidine-2-carboxylic acid (4-chloro-benzyl)-(3-cyano-propyl)-amide]	0.101 to 0.5 µM
Cc1cc(C)cc(CC(=O)N2CCC2(C)C(=O)N(CC(=O)NS(=O)(=O)c2ccccc2)Cc2ccc(Cl)cc2)c1 (stereo not shown) [Compound 104, 1-[2-(3,5-Dimethyl-phenyl)-acetyl]-2-methyl-azetidine-2-carboxylic acid (2-benzenesulfonylamino-2-oxo-ethyl)-(4-chloro-benzyl)-amide]	0.501 to 1 µM
CN(Cc1ccc(Cl)cc1)C(=O)C1(C)CCN1C(=O)Cc1cccc2sccc12 (stereo not shown) [Compound 105, 1-(2-Benzo[b]thiophen-4-yl-acetyl)-2-methyl-azetidine-2-carboxylic acid (4-chloro-benzyl)-methyl-amide]	> 1 µM
CN(Cc1ccc(Cl)cc1)C(=O)C1(C)CCN1C(=O)Cc1ccc(F)c2ccccc12 (stereo not shown) [Compound 106, 1-[2-(4-Fluoro-naphthalen-1-yl)-acetyl]-2-methyl-azetidine-2-carboxylic acid (4-chloro-benzyl)-methyl-amide]	> 1 µM
Cc1cc(C)cc(CC(=O)N2CCC2(C)C(=O)N(CCc2noc(O)n2)Cc2ccc(Cl)cc2)c1 (stereo not shown) [Compound 107, 1-[2-(3,5-Dimethyl-phenyl)-acetyl]-2-methyl-azetidine-2-carboxylic acid (4-chloro-benzyl)-[2-(5-hydroxy-[1,2,4]oxadiazol-3-yl)-ethyl]-amide]	> 1 µM
CN(Cc1ccc(Cl)cc1)C(=O)C1(C)CCN1C(=O)Cc1cc2ccccc2s1 (stereo not shown) [Compound 108, 1-(2-Benzo[b]thiophen-2-yl-acetyl)-2-methyl-azetidine-2-carboxylic acid (4-chloro-benzyl)-methyl-amide]	> 1 µM
Cc1cc(C)cc(CC(=O)N2CCC2(C)C(=O)N(CCc2nnn[nH]2)Cc2ccc(Cl)cc2)c1 (stereo not shown) [Compound 109, 1-[2-(3,5-Dimethyl-phenyl)-acetyl]-2-methyl-azetidine-2-carboxylic acid (4-chloro-benzyl)-[2-(1H-tetrazol-5-yl)-ethyl]-amide]	0.101 to 0.5 µM
